Key:
[1] = system: Complex I; assay: Complex I activity; assay type: cell-based, human; conditions: MDA-468 and MCF7 cells, 50 μM, 1-3 days
Description: In FIG. 26A MDA-231, MDA-468, MCF7, and BT-474 breast cancer cells were treated with compound 1 (50 μM) for 1-3 days. Complex I activity increased in MDA-468 and MCF7 cells. In FIG. 26B T47D-Vector control or T47D-RUNX2-clone #10 overexpressing cells; MCF7-Vector Control or RUNX2-clone #2 overexpressing cells were treated with 50 μM compound 1 for 1 day.

[2] = system: PDH; assay: PDH enzymatic activity microtiter plate assay; assay type: cell-based, human; conditions: MDA-MB-468 and MCF7, 50 μM
Description: In FIG. 23A PDH enzymatic activity was determined in doxycycline-responsive MCF7-tet-off (left) and Hs578t-Control or RUNX2 KD cells (right) or non-targeting control siRNA (NTC=RUNX2+) versus RUNX2 KD (55.5 cells=RUNX2 KD) using an antibody-specific microtiter plate assay. Results are expressed as the change in Absorbance at 450 nm per minute per mg protein (ΔmOD450/min/mg) (*p<0.05). In FIG. 23B PDH activity was determined in MDA-MB-468 (left) and MCF7 (right) BC cell lines with or without compound 1 treatment (50 μM) for the indicated time period.

[3] = system: MCF10A non-malignant mammary epithelial cells; assay: Mammosphere formation of non-malignant cells; assay type: cell-based, human
[4] = system: COX-2 and NF-κb promoter; assay: Luciferase reporter assay of promoters without Runt binding sequences; assay type: cell-based, human; conditions: MCF7-RUNX2 and MCF7-Empty cells, 0˜50 mM, 24 hrs
Description: Cells were plated in 96-well plates (30,000 cells/well) and incubated overnight. Cells were co-transfected with indicated luciferase-reporter plasmids (25 ng/well) and pSV-Renilla-Luc (Promega) (15 ng/well) for 6 hrs and compound 1 ([…]) was further treated for 18-48 hrs. COX-2 (P2-274)-Luc (−170bp˜+104bp) and control plasmids (PXP2-Luc) were kindly provided byDr. Miguel A. Iñiguez (Universidad Autónoma de Madrid, Spain), and pNF-kb-Luc was from Dr. Hancai Dan (University of Maryland). Luciferase assay was performed using the Dual-Glo Luciferase Assay Systems as per manufacturer's recommendation (Promega).

[5] = system: MDA-231 cells; assay: Cell-electrode impedance invasion assay (xCELLigence); assay type: cell-based, human; conditions: MDA-231, 50 μM, 48 hrs
Description: Real-time monitoring of cellular invasion was examined using an electrical impedance assay with an xCELLigence RTCA SP real-time cell-sensing device (Roche Applied Science). Matrigel (20 μl of 0.5 mg/ml) was pre-coated in the upper chamber of CIM plates and polymerized for 4 h and MDA-231 cells (75,000) were seeded onto wells containing growth medium with vehicle (0.1% DMSO) or compound 1 (50 μM). Impedance-based signals were measured every 5 minutes for 48 hrs according to the manufacturer's instructions. The invasive activity is expressed as the cell index (mean±SD) of duplicate wells. Three independent experiments were performed. In parallel, MDA-231 cells were plated onto wells with serum-free medium and the assay was performed.

[6] = system: RUNX2; assay: Western blot of RUNX2, RUNX1, CBF-β; assay type: cell-based, human; conditions: for CBF-β levels: MDA-231, MDA-468 and MCF7 cells
Description: Whole cell lysates extracted in RIPA buffer (Upstate) were separated on 4-12% gradient SDS-PAGE and transferred to nitrocellulose membrane. The blots were incubated with specific antibodies for each protein overnight at 4° C. After antibody washing, the blots were reacted with their respective secondary antibody and detected with enhanced chemiluminescence reagents (Millipore) according to the supplier's protocol. Antibodies for proteins were purchased as below. RUNX1, RUNX2, CBF-β, ubiquitin and caspase-3 (Cell Signaling Technologies), S451-p-RUNX2 (Bioss Gentaur, Belgium), RUNX3 and Glut-1 (Millipore, Calif.), β-actin and RUNX2 antibody for IHC (Sigma-Aldrich), and Ki-67 for IHC (Bethyl Laboratories, Inc, TX).

[7] = system: breast cancer cells; assay: Caspase 3/7 assay; assay type: cell-based, human; conditions: 50 μM, within 72 hrs
Description: Cells were cultured in 96-well plates (30,000 cells/well). After compound 1 treatment for 24-72 hrs, cellular apoptosis was analyzed using the Caspase-Glo 3/7 Assay kit (Promega) according to the manufacturer's instructions.

[8] = system: Br-001 tumor; assay: TNBC-PDX Br-001 model; assay type: in vivo, nude mice; conditions: 10 mg/kg
Description: For the PDX models, Br-001 tumor fragments derived from a patient with TNBC (University of Maryland, Translational Core Facility) were inoculated subcutaneously in female NOD scid gamma (NSG) mice (P1). After P1 tumors were grown, tumors were excised, fragmented and inoculated to a new group of NSG mice (P2). After P2 tumors were grown, they were excised, fragmented, and inoculated into nude mice (P3). When the size of the tumors reached 200˜250 mm^3, mice were randomized into two groups, and received i.p. injection of vehicle or compound 1 (10 mg/kg) twice a week for 11 days.

Which results are given for `O=C(O)C1C2C=CC(C2)C1C(=O)Nc1ccc(Cl)c(Cl)c1` (stereo not drawn) [compound 1, 3-(N-(3,4-dichlorophenyl)carbamoyl)-5-norbornene-2-carboxylic acid]?
Complex I activity [1]: increased; PDH activity [2]: increases PDH activity; mammosphere formation [3]: did not have a significant influence; COX-2 (P2-274)-Luc or pNF-κb-Luc promoter activities [4]: no inhibitory effect; cell index (mean±SD) [5]: 1.6636±0.1845; CBF-β levels ([6]; 6 hrs): increased; CBF-β levels ([6]; after 24 hrs): decreased; mRNA and protein expression of RUNX2 ([6]; T47D-RUNX2 and MCF7-RUNX2 cells, 50 μM, 72 hrs): further enhanced; CBF-β level ([6]; ectopic RUNX2 T47D and MCF7 cells, 50 μM, 72 hrs): reduced; stability of RUNX1 or of CBF-β ([6]; in the presence of CHX): not increased; RUNX1 protein levels ([6]; most BC cells): not altered; caspase-3/7 activity compared to vehicle controls [7]: no change; Ki-67 expression ([8]; i.p.): markedly reduced; tumor volume ([8]; i.p., 11 days): significant decrease; body weight and general health ([8]; nude mice): did not significantly decrease body weight
